Activity calls are given as the source filed them. The calls are words filed in the database; no cut-off is given here.
Key:
Oryza sativa [1] = assay: Growth promoting activity in Oryza sativa (rice) assessed as increase in root length at 1 x 10^-6 M relative to control; type: functional
Oryza sativa [2] = assay: Growth promoting activity in Oryza sativa (rice) assessed as increase in root length at 1 x 10^-4 M relative to control; type: functional
Lactuca sativa [3] = assay: Growth promoting activity in Lactuca sativa (lettuce) assessed as increase in root length at 1 x 10^-5 M relative to control; type: functional, organism-based
Lactuca sativa [4] = assay: Growth promoting activity in Lactuca sativa (lettuce) assessed as increase in root length at 1 x 10^-4 M relative to control; type: functional, organism-based
Oryza sativa [5] = assay: Growth promoting activity in Oryza sativa (rice) assessed as increase in shoot length at 1 x 10^-4 M relative to control; type: functional
Brassica rapa [6] = assay: Growth promoting activity in Brassica rapa (Chinese cabbage) assessed as increase in root length at 1 x 10^-4 M relative to control; type: functional
Brassica rapa [7] = assay: Growth promoting activity in Brassica rapa (Chinese cabbage) assessed as increase in root length; type: functional, organism-based
Oryza sativa [8] = assay: Growth promoting activity in Oryza sativa (rice) assessed as increase in root length at 1 x 10^-5 M relative to control; type: functional
Oryza sativa [9] = assay: Growth promoting activity in Oryza sativa (rice) assessed as increase in root length at 1 x 10^-3 M relative to control; type: functional, organism-based
Brassica rapa [10] = assay: Growth promoting activity in Brassica rapa (Chinese cabbage) assessed as increase in root length at 1 x 10^-3 M relative to control; type: functional, organism-based
Oryza sativa [11] = assay: Growth promoting activity in Oryza sativa (rice) assessed as increase in shoot length at 1 x 10^-5 M relative to control; type: functional
Oryza sativa [12] = assay: Growth promoting activity in Oryza sativa (rice) assessed as increase in shoot length at 1 x 10^-6 M relative to control; type: functional
Oryza sativa [13] = assay: Growth promoting activity in Oryza sativa (rice) assessed as increase in shoot length at 1 x 10^-3 M relative to control; type: functional

Compound | Activity (Oryza sativa [1]) [%] | Activity (Oryza sativa [2]) [%] | Activity (Lactuca sativa [3]) | Activity (Lactuca sativa [4]) | Activity (Oryza sativa [5]) [%] | fold change (FC) (Brassica rapa [6]) | Activity (Brassica rapa [7]) | Activity (Oryza sativa [8]) [%] | Activity (Oryza sativa [9]) | Activity (Brassica rapa [10]) | Activity (Oryza sativa [11]) [%] | Activity (Oryza sativa [12]) [%] | Activity (Oryza sativa [13]) [%]
Cc1cccc2c(C(CC(=O)O)C(F)(F)F)c[nH]c12 (racemic) | 126 | 224.4 | Active | Active | 83.3 | 2.5 | Active | 277.1 | inactive | inactive | 112.8 | 96 | 36.9
Cc1cccc2[nH]cc(C(CC(=O)O)C(F)(F)F)c12 (racemic) | 172.5 | 274.6 | Active | Active | 86.4 | 2.5 | Active | 357.5 | inactive | inactive | 102.7 | 103.6 | 33.7
Cc1c(C(CC(=O)O)C(F)(F)F)[nH]c2ccccc12 (racemic) | 134.6 | 433.3 | Active | inactive | 99 | 2.5 | Active | 266 | inactive | inactive | 106.2 | 98.4 | 38.2
Cc1[nH]c2ccccc2c1C(CC(=O)O)C(F)(F)F (racemic) | 111.8 | 168 | inactive | inactive | 84 | – | – | 242 | inactive | inactive | 103.2 | 98.8 | 36.6
Cc1ccc2[nH]cc(C(CC(=O)O)C(F)(F)F)c2c1 (racemic) | 168.5 | 331.1 | Active | Active | 90 | – | – | 382.4 | inactive | inactive | 105.5 | 100.5 | 31.9
Cc1ccc2c(C(CC(=O)O)C(F)(F)F)c[nH]c2c1 (racemic) | 172 | 311.4 | Active | Active | 95.9 | 2.5 | Active | 377.5 | inactive | inactive | 106.2 | 103.3 | 31.5
O=C(O)CC(c1c[nH]c2ccccc12)C(F)(F)F (racemic) | 128.9 | 199.5 | – | – | 76.7 | – | – | 290.1 | inactive | – | 99 | 99.2 | 35.6
Cn1cc(C(CC(=O)O)C(F)(F)F)c2ccccc21 (racemic) | 136.2 | 153.4 | inactive | Active | 86.2 | – | inactive | 211.1 | inactive | inactive | 105.3 | 94.6 | 46
